Source: patent US8058395B2, “Chimeric protein comprising a green fluorescent ptotein fused to a transcription factor” (The United States of America as represented by the …, priority 1995, dated 2011)

What was measured:
[1] = tested on: GFP-ER (human estrogen receptor); experiment: Ligand effect on nuclear localization of GFP-ER in MCF7 cells; type: cell-based; conditions: GFP-ER already partially activated by medium
Method: GFP-fusion plasmids of the invention are tested for expression and subcellular localization by transfection into several mammalian cells. For example, GFP-GR plasmids were analyzed in C127 (mouse) cells, HeLa (human cervical cancer) cells, and MCF7 (human breast adenocarcinoma) cells (ATCC accession number HTB22). GFP-ER plasmids were analyzed in 1471.1 cells, C127 (mouse) cells, MCF7 (human breast adenocarcinoma) cells, and MDA-MB-231 (human breast adenocarcinoma) cells (ATCC accession number HTB 26). Localization is observed in the absence of added hormone in either-5% or 10% charcoal-stripped fetal calf serum. Cells having GFP-fusion plasmids are then treated with a selected ligand, and subcellular localization and quantitative observations are made.
Assay for Ligand Effects: GFP-fusion plasmids of the invention are assayed for effects of a selected ligand on subcellular localization by transfection into selected cells. C127 (mouse) cells, HeLa (human cervical cancer) cells, and MCF7 (human breast adenocarcinoma) cells (ATCC accession number HTB22) were each transfected with GFP-GR plasmids and with GFP-ER plasmids. Localization is first observed in the absence of added hormone in either 5% or 10% charcoal-stripped fetal calf serum. Cells having GFP-fusion plasmids are then treated with a selected ligand, and subcellular localization and quantitative observations are made. […]

[2] = tested on: GR; conditions: cited from earlier work

C[C@]12CC[C@@H]3c4ccc(O)cc4CC[C@H]3[C@@H]1CC[C@@H]2O [17-β-estradiol]
nuclear GFP-ER signal after addition of agonist [1]: further concentration of nuclear signals on nuclear structures | affinity for GR [2]: no affinity
